Laboratory results taken from ChEMBL document CHEMBL1201862, “PubChem BioAssay data set” (2004).
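How tested: cells in 96-well plates exposed to compound for 48 hours at five concentrations. The concentration for 50% growth inhibition is given as GI50.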 The source made the active and inactive calls. Rule as the data show it: active = GI50 up to about 1.1 µM and inactive = higher.

Key:
Experiment in all cases: DTP human tumour cell line panel, 48 h
BT-549 = tested on: BT-549
CAKI-1 = tested on: CAKI-1
DU-145 = tested on: DU-145
HT-29 = tested on: HT-29
Hs-578T = tested on: Hs-578T
K562 = tested on: K562
M14 = tested on: M14
MDA-MB-231 = tested on: MDA-MB-231
NCI-H23 = tested on: NCI-H23
NCI-H460 = tested on: NCI-H460
NCI/ADR-RES = tested on: NCI/ADR-RES
OVCAR-3 = tested on: OVCAR-3
OVCAR-5 = tested on: OVCAR-5
OVCAR-8 = tested on: OVCAR-8
SF-268 = tested on: SF-268
SF-295 = tested on: SF-295
SK-MEL-2 = tested on: SK-MEL-2
T47D = tested on: T47D
LOX IMVI = tested on: LOX IMVI

SMILES | GI50 (BT-549) | GI50 (CAKI-1) | GI50 (DU-145) | GI50 (HT-29) | GI50 (Hs-578T) | GI50 (K562) | GI50 (M14) | GI50 (MDA-MB-231) | GI50 (NCI-H23) | GI50 (NCI-H460) | GI50 (NCI/ADR-RES) | GI50 (OVCAR-3) | GI50 (OVCAR-5) | GI50 (OVCAR-8) | GI50 (SF-268) | GI50 (SF-295) | GI50 (SK-MEL-2) | GI50 (T47D) | GI50 (LOX IMVI)
O=C(O)c1cnc2cc(OCc3ccccc3)ccc2c1O | 18.4 µM (inactive) | 20.2 µM (inactive) | 18 µM (inactive) | 19.2 µM (inactive) | 20 µM (inactive) | 23.6 µM (inactive) | 17 µM (inactive) | 20.6 µM (inactive) | 17.9 µM (inactive) | 19.4 µM (inactive) | 18.1 µM (inactive) | 20.7 µM (inactive) | 27.3 µM (inactive) | 19 µM (inactive) | 16 µM (inactive) | 19.3 µM (inactive) | 18.5 µM (inactive) | 17.8 µM (inactive) | –
CN(CC(=O)O)Cc1oc(CO)cc(=O)c1O | > 100 µM (inactive) | > 100 µM (inactive) | – | > 100 µM (inactive) | > 100 µM (inactive) | > 100 µM (inactive) | > 100 µM (inactive) | > 100 µM (inactive) | > 100 µM (inactive) | > 100 µM (inactive) | > 100 µM (inactive) | > 100 µM (inactive) | > 100 µM (inactive) | > 100 µM (inactive) | > 100 µM (inactive) | > 100 µM (inactive) | > 100 µM (inactive) | > 100 µM (inactive) | > 100 µM (inactive)
CCC1=C(c2ccc(OC)cc2)CC[C@]2(CCNC2=O)[C@@H]1C | – | 48.3 µM (inactive) | 33.3 µM (inactive) | 23.2 µM (inactive) | 24.5 µM (inactive) | 21.5 µM (inactive) | 26.4 µM (inactive) | 39.1 µM (inactive) | 37.4 µM (inactive) | 28.2 µM (inactive) | 31.2 µM (inactive) | 22.7 µM (inactive) | 31.1 µM (inactive) | 42.4 µM (inactive) | 33.1 µM (inactive) | 30 µM (inactive) | 21.3 µM (inactive) | 32.4 µM (inactive) | 25.1 µM (inactive)
O=C(CCC(=O)Nc1cccc(Cl)c1)CC(=O)c1ccc(Cl)cc1 | – | > 100 µM (inactive) | – | > 100 µM (inactive) | – | > 100 µM (inactive) | > 100 µM (inactive) | – | > 100 µM (inactive) | > 100 µM (inactive) | – | > 100 µM (inactive) | > 100 µM (inactive) | > 100 µM (inactive) | > 100 µM (inactive) | > 100 µM (inactive) | > 100 µM (inactive) | – | > 100 µM (inactive)
CC(=O)C(=C(I)I)c1ccccc1 | – | 1.84 µM (inactive) | 29.7 µM (inactive) | 17.9 µM (inactive) | – | 15 µM (inactive) | 14.5 µM (inactive) | 22.3 µM (inactive) | 16.8 µM (inactive) | 33.4 µM (inactive) | 21.1 µM (inactive) | 16.7 µM (inactive) | 23.3 µM (inactive) | 18.3 µM (inactive) | 25.1 µM (inactive) | 25.9 µM (inactive) | 21.8 µM (inactive) | 20.4 µM (inactive) | 18.1 µM (inactive)
C=CC[C@H]1O[Si](C(C)(C)C)(C(C)(C)C)[C@H](C)[C@H]1C | > 100 µM (inactive) | > 100 µM (inactive) | – | > 100 µM (inactive) | – | > 100 µM (inactive) | > 100 µM (inactive) | > 100 µM (inactive) | > 100 µM (inactive) | – | > 100 µM (inactive) | > 100 µM (inactive) | > 100 µM (inactive) | > 100 µM (inactive) | – | > 100 µM (inactive) | > 100 µM (inactive) | > 100 µM (inactive) | > 100 µM (inactive)
COC(=O)c1c(O)ccc2c1c1c(n2Cc2cc(OC)cc(OC)c2)C(=O)c2ccccc2C1 | 55.5 µM (inactive) | 21.1 µM (inactive) | 53.3 µM (inactive) | 11.7 µM (inactive) | 87.3 µM (inactive) | 66.8 µM (inactive) | 37.8 µM (inactive) | 24 µM (inactive) | 58.1 µM (inactive) | 31 µM (inactive) | 16.7 µM (inactive) | 43.2 µM (inactive) | 18.4 µM (inactive) | 43.3 µM (inactive) | 31.1 µM (inactive) | 52.6 µM (inactive) | 50.6 µM (inactive) | – | 33.1 µM (inactive)
Oc1ccccc1/C=N/c1ccc(-c2nc3ccccc3s2)cc1 | 31.8 µM (inactive) | 28.2 µM (inactive) | 45.7 µM (inactive) | 30.8 µM (inactive) | 30.7 µM (inactive) | 24.6 µM (inactive) | 37.1 µM (inactive) | – | 31.8 µM (inactive) | 25 µM (inactive) | 25.6 µM (inactive) | 20.6 µM (inactive) | 28.3 µM (inactive) | 28.6 µM (inactive) | 23.2 µM (inactive) | 24.1 µM (inactive) | 21.3 µM (inactive) | 10.4 µM (inactive) | 26.4 µM (inactive)
SCCSCCCSCCS | 53.3 µM (inactive) | – | 56.4 µM (inactive) | > 100 µM (inactive) | – | 92.7 µM (inactive) | 74.6 µM (inactive) | 91.6 µM (inactive) | > 100 µM (inactive) | 31.1 µM (inactive) | > 100 µM (inactive) | 76.4 µM (inactive) | > 100 µM (inactive) | > 100 µM (inactive) | > 100 µM (inactive) | 76.9 µM (inactive) | – | 50.2 µM (inactive) | 47.5 µM (inactive)
O=S(=O)(SC1=NCCN1)c1cccc2ccccc12 | 22.9 µM (inactive) | 24.9 µM (inactive) | 29.6 µM (inactive) | 28.7 µM (inactive) | – | 24 µM (inactive) | 27.6 µM (inactive) | 22.1 µM (inactive) | 28.4 µM (inactive) | 22.7 µM (inactive) | 26.5 µM (inactive) | 44 µM (inactive) | 22.1 µM (inactive) | 28.8 µM (inactive) | – | 24.1 µM (inactive) | 23.7 µM (inactive) | – | 43.8 µM (inactive)
COc1cc(C2S/C(=C/c3ccccc3)C(=O)N2c2cccc([N+](=O)[O-])c2)cc(OC)c1OC (stereo unspecified) | > 100 µM (inactive) | 48.8 µM (inactive) | – | 50.1 µM (inactive) | > 100 µM (inactive) | 51.5 µM (inactive) | 72.1 µM (inactive) | 51.8 µM (inactive) | > 100 µM (inactive) | – | 42.2 µM (inactive) | – | > 100 µM (inactive) | > 100 µM (inactive) | 76.2 µM (inactive) | 50.1 µM (inactive) | 15.9 µM (inactive) | 0.156 µM (active) | 40.8 µM (inactive)
CN(C)CCN(C)CC1COC(C)(C)O1 (stereo unspecified) | – | > 100 µM (inactive) | – | > 100 µM (inactive) | – | > 100 µM (inactive) | > 100 µM (inactive) | – | > 100 µM (inactive) | > 100 µM (inactive) | – | > 100 µM (inactive) | > 100 µM (inactive) | > 100 µM (inactive) | > 100 µM (inactive) | > 100 µM (inactive) | > 100 µM (inactive) | – | > 100 µM (inactive)
O=C1c2ccccc2C(=O)c2sc(Nc3ccccc3Cl)nc21 | 16 µM (inactive) | 4.06 µM (inactive) | 17.6 µM (inactive) | 21.5 µM (inactive) | 11.1 µM (inactive) | 2.8 µM (inactive) | 5.36 µM (inactive) | 3.78 µM (inactive) | 4.98 µM (inactive) | 12.9 µM (inactive) | – | 10.7 µM (inactive) | 19.8 µM (inactive) | 5.85 µM (inactive) | 9.29 µM (inactive) | 16.1 µM (inactive) | 13.6 µM (inactive) | 11.1 µM (inactive) | 2.6 µM (inactive)
CSc1c(C(=O)Nc2ccc(C)cc2)c(N)nn1-c1ccccc1 | 43.2 µM (inactive) | 23.4 µM (inactive) | 42.8 µM (inactive) | > 100 µM (inactive) | 46.9 µM (inactive) | > 100 µM (inactive) | 36.7 µM (inactive) | 40.6 µM (inactive) | > 100 µM (inactive) | 3.55 µM (inactive) | – | > 100 µM (inactive) | > 100 µM (inactive) | – | 46 µM (inactive) | 48.8 µM (inactive) | > 100 µM (inactive) | 98.9 µM (inactive) | > 100 µM (inactive)
CC(C)(C)c1ccc2c(c1)OCc1n[nH]c(n1)COc1cc(C(C)(C)C)ccc1OCCOCCO2 | 2.81 µM (inactive) | 4.18 µM (inactive) | 6.52 µM (inactive) | 3.01 µM (inactive) | 2.26 µM (inactive) | 4.27 µM (inactive) | 2.86 µM (inactive) | 9.48 µM (inactive) | 3.09 µM (inactive) | 3.13 µM (inactive) | 3.41 µM (inactive) | 2.53 µM (inactive) | 5.96 µM (inactive) | 3.79 µM (inactive) | 4.37 µM (inactive) | 3.55 µM (inactive) | 1.81 µM (inactive) | 3.48 µM (inactive) | –
Cc1ccc(-c2c(C#N)c(O)n(NS(=O)(=O)c3ccccc3)c(=O)c2C#N)cc1 | > 100 µM (inactive) | > 100 µM (inactive) | – | > 100 µM (inactive) | – | > 100 µM (inactive) | > 100 µM (inactive) | > 100 µM (inactive) | – | > 100 µM (inactive) | > 100 µM (inactive) | – | > 100 µM (inactive) | > 100 µM (inactive) | > 100 µM (inactive) | > 100 µM (inactive) | > 100 µM (inactive) | – | > 100 µM (inactive)
CC(=O)Oc1ccn2nc(C)c(Cc3c(C)nn4ccc(OC(C)=O)cc34)c2c1 | – | 51.8 µM (inactive) | > 100 µM (inactive) | > 100 µM (inactive) | 32.4 µM (inactive) | 37.8 µM (inactive) | > 100 µM (inactive) | > 100 µM (inactive) | > 100 µM (inactive) | 50.9 µM (inactive) | > 100 µM (inactive) | > 100 µM (inactive) | > 100 µM (inactive) | > 100 µM (inactive) | > 100 µM (inactive) | 23 µM (inactive) | 34.6 µM (inactive) | > 100 µM (inactive) | 79.1 µM (inactive)
